Patent publication US20040142393A1, “Methods of use of compounds with preptin function” (priority 2002, published 2004)

Experiments:
NIH-3T3 fibroblast cells = experiment: Stimulation of proliferation of NIH-3T3 cells (3H-thymidine uptake); format: cell-based; details: 10, 50, 100 and 500 nM preptin; FIG. 1
Procedure: NIH-3T3 cells may be used for various purposes including research regarding mitogenicity investigations. See, e.g., Buergisser et al. (1990). BiochemBiophys Res Comm 169(3): 832-839; Burgisser et al. (1991). J Biol. Chem 266(2): 1029-33; Yang et al. (1996). Endocrinol 137(7): 2766-2773; Geddes et al. (2001). Prot Engin 14(1): 61-65. NIH-3T3 cells were seeded in 24 well plates at a density of 3×10^4 cells/well. Cells were grown at 37° C. for 24 hours in high glucose DMEM (supplemented with 30 mM sodium hydrogen carbonate, 2 mM L-glutamine, 10^5 IU/l penicillin, 0.01% streptomycin sulphate) and 10% fetal calf serum, after which time they were serum starved for 24 hours in high DMEM and 0.2% BSA. […] This alkaline cell lysate was then neutralized with 200 μl of 0.2M HCl before 300 μl aliquots were mixed with 2 ml of Starscint scintillation fluid, and counted on a scintillation counter.
One method of measuring cell proliferation is via the incorporation of labeled nucleotides (e.g., [3H]-thymidine) into- newly synthesized DNA during cell division. For example, one of the most familiar and widely used methods for quantifying cell proliferation is the measurement of tritiated thymidine ([3H]-thymidine) incorporation. […]

INS-1E β-cells = experiment: Stimulation of proliferation of INS-1E β-cells (3H-thymidine uptake); format: cell-based; details: general statement; test with 10 nM rat preptin in INS-1E cells, FIG. 2
Procedure: INS-1E cells were seeded in 24 well plates at a density of 2×10^5 cells/well. Cells were grown at 37° C. for 24 hours in modified RPMI-1640 (GIBCO R-1383 Lot108H83032; supplemented with 23.8 mM sodium hydrogen carbonate, 2 mM L-glutamine, 10 mM HEPES, 50 μM β-Mercaptoethanol, 1 mM Sodium Pyruvate, 10^5 IU/l penicillin, 0.01% streptomycin sulphate) and 10% fetal calf serum, after which time they were serum starved for 24 hours in modified RPMI-1640. The serum free medium was then replaced with 500 μl of RPMI-1640 containing the following:
0% fetal calf serum (negative control), 10% fetal calf serum (positive control), 10 nM of rat preptin (rPreptin 10 nM), 10 nM of human GLP-1 (hGLP-1 10 nM), 10 nM of human IGF-II (hIGF-II 10 nM), and cells were incubated for a further 18 hours before the addition of 5 μCi of ^3H-thymidine to each well. After a further 6 hours incubation, medium was aspirated and cells were washed twice with cold PBS, once with cold 5% TCA, and twice with cold 100% ethanol. Plates were then air-dried for 30 minutes before cells were solubilized with 400 μl of 0.5M NaOH. This alkaline c ell lysate was then neutralized with 400 μl of 0.5M HCl before 500 μl aliquots were mixed with 2 ml of Starscint scintillation fluid, and counted on a scintillation counter. […]

insulin secretion = details: Buchanan et al. (2001) Biochem. J. 360: 431-439; cited from earlier work

For “preptin: peptide of 34 amino acids, Formula (I); corresponds to Asp69-Leu102 of proinsulin-like growth factor II (DVSTPPTVLPDNFPRYPVGKFFQYDTWKQSTQRL; Preptin; UniProt P01344 93-126, looked up)”, the “effect on the proliferation of NIH-3T3 fibroblast cells (tritiated thymidine uptake)” value (NIH-3T3 fibroblast cells) is given as “dose dependent effect”, the “proliferation of pancreatic islet β-cells” value (INS-1E β-cells) is given as “stimulate proliferation” and the “effect on insulin secretion” value (insulin secretion) is given as “enhance, but not initiate, insulin secretion”.
